# Assay results as given in patent US8759366B2, “Aminopyrimidines as SYK inhibitors” (Merck Sharp & Dohme Corp., priority 2009, dated 2014).
# Target: rhSYK (Homo sapiens (Human), UniProt P43405)
# Conditions: read-out: rhSYK activity
row,SMILES,IC50 [nM]
1,O=C(c1ncc(-c2cccc(Nc3nccc(C(F)(F)F)n3)c2)s1)C(F)(F)F [Example 6-1],< 100
2,Cc1cc(Nc2nccc(C(F)(F)F)n2)cc(-c2cnc(C3(O)C[C@H]4CC(CC(=O)O)C[C@H]4C3)s2)c1 (stereo partly drawn) [Example 4B-27],< 100
3,Cc1cc(Nc2nccc(C(F)(F)F)n2)cc(-c2cnc(C3CCC3)s2)c1 [13-1],100 to 1000
4,Cc1cc(Nc2nccc(C(F)(F)F)n2)cc(-c2cnc(C3(O)C[C@H]4CC(=O)C[C@H]4C3)s2)c1 (stereo partly drawn) [Example 4B-20],< 100
5,OC1(c2ncc(-c3cccc(Nc4nccc(C(F)(F)F)n4)c3)s2)CCN(c2ccc(F)cc2)C1 (stereo not drawn) [4D-2],1000 to 10000
6,Cc1cc(Nc2nccc(C(F)(F)F)n2)cc(-c2cnc(C3(O)CCN(c4ccccc4F)CC3)s2)c1 [4D-11],100 to 1000
7,Cc1cc(Nc2nccc(C(F)(F)F)n2)cc(-c2cnc(C3(O)CCCC4CC43)s2)c1 (stereo not drawn) [Example 4B-18],< 100
8,"OCCC(O)(CCO)c1ncc(-c2cccc(Nc3nccc(C(F)(F)F)n3)c2)s1 [Example 5, 3-[5-(3-{[4-(trifluoromethyl)pyrimidin-2-yl]amino}phenyl)-1,3-thiazol-2-yl]pentane-1,3,5-triol]",100 to 1000
9,"Cc1cc(Nc2nccc(C(F)(F)F)n2)cc(-c2cnc(C3(O)CCC(=O)CC3)s2)c1 [Example 7, 4-hydroxy-4-[5-(3-methyl-5-{[4-(trifluoromethyl)pyrimidin-2-yl]amino}phenyl)-1,3-thiazol-2-yl]cyclohexanone]",< 100
10,Cc1cc(Nc2ncc(Cl)cn2)cc(-c2cnc(C(O)(CO)CO)s2)c1 [Ex 5-20],100 to 1000

# Continued, values first:
row,IC50 [nM],SMILES
1,< 100,"CCNC(=O)Nc1cc(Nc2nccc(C(F)(F)F)n2)cc(-c2cnc(C3CCC(C(N)=O)CC3)s2)c1 (single isomer, unassigned) [Example 20(2), 4-[5-(3-[(ethylcarbamoyl)amino]-5-{[4-(trifluoromethyl)pyrimidin-2-yl]amino}phenyl)-1,3-thiazol-2-yl]cyclohexanecarboxamide]"
2,< 100,"Cc1cc(Nc2nccc(C(F)(F)F)n2)cc(-c2cncs2)c1 [Intermediate 4, N-[3-methyl-5-(1,3-thiazol-5-yl)phenyl]-4-(trifluoromethyl)pyrimidin-2-amine]"
3,< 100,"Cc1cc(Nc2nccc(C(F)(F)F)n2)cc(-c2cnc(C(NC(=O)C3(C(N)=O)CC3)(C3CC3)C3CC3)s2)c1 [Example 67, N-{dicyclopropyl[5-(3-methyl-5-{[4-(trifluoromethyl)pyrimidin-2-yl]amino}phenyl)-1,3-thiazol-2-yl]methyl}cyclopropane-1,1-dicarboxamide]"
4,< 100,"Cc1cc(Nc2nccc(C(F)(F)F)n2)cc(-c2cnc([C@]3(F)CC[C@@H](C(=O)O)CC3)s2)c1 [Example 26, cis-4-Fluoro-4-[5-(3-methyl-5-{[4-(trifluoromethyl)pyrimidin-2-yl]amino}phenyl)-1,3-thiazol-2-yl]cyclohexanecarboxylic acid]"
5,< 100,"Cc1cc(Nc2nccc(C(F)(F)F)n2)cc(-c2cnc(C3(C(N)=O)CCC(N)CC3)s2)c1 (stereo not drawn) [molecule A, cis-4-amino-1-[5-(3-methyl-5-{[4-(trifluoromethyl)pyrimidin-2-yl]amino}phenyl)-1,3-thiazol-2-yl]cyclohexanecarboxamide]"
6,< 100,"COC(=O)[C@H](C)Cc1ncc(-c2cc(C)cc(Nc3nccc(C(F)(F)F)n3)c2)s1 [Example 76, Methyl (2R)-2-methyl-3-[5-(3-methyl-5-{[4-(trifluoromethyl)pyrimidin-2-yl]amino}phenyl)-1,3-thiazol-2-yl]propanoate]"
7,< 100,"CC(=O)Nc1cc(Nc2nccc(C(F)(F)F)n2)cc(-c2cnc(C3(O)CCC3)s2)c1 [Example 16, N-(3-[2-(1-hydroxycyclobutyl)-1,3-thiazol-5-yl]-5-{[4-(trifluoromethyl)pyrimidin-2-yl]amino}phenyl)acetamide]"
8,100 to 1000,Cc1cc(Nc2nccc(C(F)(F)F)n2)cc(-c2cnc(C(C)(O)c3ccc(C(C)(C)O)cc3)s2)c1 (stereo not drawn) [Example 9-1]
